Drawing on PMC11467430 (Scientific Reports, 2024), this text covers IC50 for two compounds.

SMILES strings stand for the structures.

In one experiment the target is T1, rabbit lung ACE (Oryctolagus cuniculus, UniProt P12822).
T1 sequence (P12822 34-1310): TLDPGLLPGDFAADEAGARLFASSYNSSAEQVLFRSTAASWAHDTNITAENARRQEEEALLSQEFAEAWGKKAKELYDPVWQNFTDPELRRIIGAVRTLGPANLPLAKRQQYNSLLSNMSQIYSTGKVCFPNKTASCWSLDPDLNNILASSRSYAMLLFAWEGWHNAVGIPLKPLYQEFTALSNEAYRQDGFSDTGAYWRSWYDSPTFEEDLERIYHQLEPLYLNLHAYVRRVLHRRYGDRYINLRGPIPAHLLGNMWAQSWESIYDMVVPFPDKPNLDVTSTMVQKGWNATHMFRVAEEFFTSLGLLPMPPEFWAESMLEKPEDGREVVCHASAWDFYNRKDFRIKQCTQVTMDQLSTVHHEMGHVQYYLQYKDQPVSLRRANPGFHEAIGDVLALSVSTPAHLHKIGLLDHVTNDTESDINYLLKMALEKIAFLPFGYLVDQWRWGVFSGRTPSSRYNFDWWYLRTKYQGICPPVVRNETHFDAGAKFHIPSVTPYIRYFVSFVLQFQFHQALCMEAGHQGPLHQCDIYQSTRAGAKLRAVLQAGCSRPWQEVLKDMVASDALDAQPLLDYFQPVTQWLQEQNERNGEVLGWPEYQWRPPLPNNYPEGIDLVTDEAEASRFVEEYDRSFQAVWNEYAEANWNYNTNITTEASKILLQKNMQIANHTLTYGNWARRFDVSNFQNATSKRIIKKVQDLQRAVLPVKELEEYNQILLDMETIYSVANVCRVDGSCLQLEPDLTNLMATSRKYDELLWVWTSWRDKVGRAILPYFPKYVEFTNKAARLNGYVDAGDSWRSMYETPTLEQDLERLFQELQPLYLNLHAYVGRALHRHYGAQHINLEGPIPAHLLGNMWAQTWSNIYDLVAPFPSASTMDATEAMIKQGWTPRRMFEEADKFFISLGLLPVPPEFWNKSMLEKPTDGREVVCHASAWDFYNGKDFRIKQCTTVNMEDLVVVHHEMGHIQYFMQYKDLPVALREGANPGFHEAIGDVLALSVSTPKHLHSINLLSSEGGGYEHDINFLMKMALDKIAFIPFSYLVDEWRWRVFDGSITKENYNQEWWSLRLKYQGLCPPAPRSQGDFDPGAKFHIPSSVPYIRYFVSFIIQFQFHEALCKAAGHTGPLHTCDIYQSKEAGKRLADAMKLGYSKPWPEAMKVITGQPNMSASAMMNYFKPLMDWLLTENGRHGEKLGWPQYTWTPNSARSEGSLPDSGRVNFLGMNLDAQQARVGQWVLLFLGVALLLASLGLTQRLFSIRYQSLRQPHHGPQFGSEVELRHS
The experiment in a line: ACE inhibitory assay. Conditions: IC50 against ACE, positive control; performed in this study. It counts as biochemical.

The test system of a further experiment is Candida rugosa lipase. Conditions: read-out: IC50 against lipase; positive control; ref Chupeerach et al., 2022[35]; cited from earlier work.

On to `NCCCC[C@H](N[C@@H](CCc1ccccc1)C(=O)O)C(=O)N1CCC[C@H]1C(=O)O` [Lisinopril, lisinopril], for which, at rabbit lung ACE, the IC50 (in general, the midpoint of a concentration-inhibition curve) turned out to be 1.79 nM.

As for `CCCCCCCCCCC[C@@H](C[C@@H]1OC(=O)[C@H]1CCCCCC)OC(=O)[C@H](CC(C)C)NC=O` [Orlistat, orlistat], the half-maximal inhibitory concentration (IC50) in the experiment on Candida rugosa lipase was 7.94 µM.
